Holding throughout (assay): inhibition of tumour cell growth, NCI panel, 48 h
Experiment [1] concerns MCF7.
Experiment [2] concerns OVCAR-8.
Experiment [3] concerns IGROV-1.
In experiment [4] the test system is RXF 393.
For experiment [5], the system named is HCT-116.
Experiment [6] deals with NCI-H23.
Experiment [7] deals with CCRF-CEM.
Experiment [8] deals with SK-MEL-5.
In experiment [9] the test system is CAKI-1.
The subject of experiment [10] is OVCAR-3.
Experiment [11] concerns 786-0.
Experiment [12] deals with SK-MEL-28.
The test system of experiment [13] is SW-620.
Experiment [14] has as its system MDA-N.
Experiment [15] concerns DU-145.
Experiment [16] has as its system K562.
The subject of experiment [17] is ACHN.
For experiment [18], the system named is SNB-19.
In experiment [19] the test system is PC-3.
In experiment [20] the test system is SNB-75.

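Compound exposure: 48 hours, 5 concentrations, 96-well plates. GI50 marks 50% less growth.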 The source made the active and inactive calls. No stated cut-off is given here; in the data, active = GI50 up to about 1.1 µM and inactive = higher.

As to `Cn1c2c3ccccc3nc-2c(O)c2ccccc21` [HYDROXYCRYPTOLEPINE], the GI50 in experiment [1] is > 100 µM (inactive); in [2] it was > 100 µM (inactive); in experiment [3], 35.4 µM (inactive); in experiment [4], > 100 µM (inactive); in [5] it was 49.4 µM (inactive); in experiment [6] it was > 100 µM (inactive). Moreover, the GI50 in experiment [7] is 90.6 µM (inactive); in experiment [8], 41.2 µM (inactive); in experiment [9], 8.91 µM (inactive); in [10], > 100 µM (inactive); in [11], > 100 µM (inactive); in experiment [12], 6.52 µM (inactive). The GI50 in experiment [13] was > 100 µM (inactive); in experiment [14], > 100 µM (inactive); in experiment [15] it was 3.46 µM (inactive); in [16] it was > 100 µM (inactive); in experiment [17] it was 48.6 µM (inactive); in experiment [18], > 100 µM (inactive). Moreover, the GI50 in experiment [19] is > 100 µM (inactive); in experiment [20], 34.1 µM (inactive).

As to `CC(C)C[C@H](NC(=O)[C@H](Cc1cccc2ccccc12)NC(=O)N1CCOCC1)B(O)O`, the GI50 in [1] was < 0.0444 µM (active); in [2], < 0.0128 µM (active); in [3], < 0.01 µM (active); in experiment [4], 0.000555 µM (active); in experiment [5] it was < 0.01 µM (active); in experiment [6], < 0.01 µM (active). For the same molecule, the GI50 in [7] is < 0.01 µM (active); in experiment [8] it was 0.001 µM (active); in experiment [9], < 0.0126 µM (active); in experiment [10], < 0.01 µM (active); in experiment [11], 0.00362 µM (active); in experiment [12], < 0.01 µM (active). Moreover, the GI50 in experiment [13] is 0.000776 µM (active); in [14], < 0.01 µM (active); in experiment [15], < 0.01 µM (active); in experiment [16], < 0.01 µM (active); in experiment [17], < 0.01 µM (active); in [18], < 0.01 µM (active). The GI50 in [19] is < 0.0108 µM (active); in experiment [20] it was < 0.01 µM (active).

As to `O=C1c2ccccc2-[n+]2ccc3c([nH]c4ccccc43)c21` [FASCAPLYSIN CHLORIDE], the GI50 in experiment [1] was 0.184 µM (active); in [2], 0.439 µM (active); in [3], 0.196 µM (active); in experiment [4], 0.384 µM (active); in [5] it was 0.195 µM (active); in experiment [6], 0.31 µM (active). Moreover, the GI50 was 0.337 µM (active) in [7]; 0.14 µM (active) in [8]; 0.659 µM (active) in [9]; 0.145 µM (active) in [10]; 0.427 µM (active) in experiment [11]; 0.34 µM (active) in [12]. The GI50 in experiment [13] was 0.296 µM (active); in experiment [14], 0.191 µM (active); in experiment [15], 1.15 µM (inactive); in [16], 0.925 µM (active); in experiment [17], 0.557 µM (active); in experiment [18], 0.615 µM (active). Moreover, the GI50 in experiment [19] is 0.269 µM (active); in experiment [20], 0.452 µM (active).

`O=C1c2cccc3cccc(c23)C(=O)N1CCCNCCCNCCCCNCCCNCCCN1C(=O)c2cccc3cccc(c23)C1=O`: the GI50 in experiment [1] is 0.449 µM (active); in experiment [2] it was 4.93 µM (inactive); in experiment [3], 1.96 µM (inactive); in experiment [4], 3.34 µM (inactive); in [5], 1.67 µM (inactive); in [6], 2.12 µM (inactive). In addition, the GI50 is 0.479 µM (active) in experiment [7]; 5.93 µM (inactive) in experiment [8]; 12.9 µM (inactive) in [9]; 4.67 µM (inactive) in [10]; 1.07 µM (active) in experiment [11]; 2.46 µM (inactive) in [12]. Also, the GI50 in experiment [13] is 2.03 µM (inactive); in experiment [14], 2.36 µM (inactive); in [15] it was 3.66 µM (inactive); in experiment [16], 3.25 µM (inactive); in [17], 3.97 µM (inactive); in experiment [18], 2.28 µM (inactive). Further, the GI50 in experiment [19] was 3.23 µM (inactive); in experiment [20], 2.52 µM (inactive).

As to `O=c1c(C(c2ccc3c(c2)Cc2ccccc2-3)c2c(O)oc3ccccc3c2=O)c(O)oc2ccccc12`, the GI50 in experiment [1] was 22.9 µM (inactive); in experiment [2], > 100 µM (inactive); in experiment [3], 39.3 µM (inactive); in experiment [4] it was 18.2 µM (inactive); in experiment [5] it was 35.6 µM (inactive); in experiment [6] it was 29.4 µM (inactive). Also, the GI50 in experiment [7] is 40.4 µM (inactive); in experiment [8], 24.5 µM (inactive); in [9], 20.3 µM (inactive); in [10] it was 31 µM (inactive); in [11], 25.9 µM (inactive); in experiment [12], 22.5 µM (inactive). The GI50 is 29.8 µM (inactive) in experiment [13]; 19.9 µM (inactive) in experiment [14]; 33.6 µM (inactive) in [15]; 10 µM (inactive) in experiment [16]; 23.9 µM (inactive) in experiment [17]; 47.1 µM (inactive) in [18]. The GI50 in experiment [19] is 37.8 µM (inactive); in experiment [20] it was 20.7 µM (inactive).

For the molecule `CC(C)(C)OC(=O)CN1CCNCCNCC1`, the GI50 in experiment [1], in experiment [2], in experiment [3], in [4], in [5] and in experiment [6] was > 100 µM (inactive) each time. Further, the GI50 in experiment [7], in experiment [8], in [9], in experiment [10], in experiment [11] and in [12] was > 100 µM (inactive) throughout. Besides, the GI50 in experiment [13], in experiment [14], in [15], in experiment [16], in experiment [17] and in experiment [18] was > 100 µM (inactive) in each case. In addition, the GI50 in experiment [19] and in [20] was > 100 µM (inactive) throughout.

Turning to `CN(CCC(=O)O)C1=Nc2ccc(Cl)cc2C(c2ccccc2)=[N+]([O-])C1`, the GI50 in experiment [1], in experiment [2], in experiment [3], in [4], in experiment [5] and in experiment [6] was > 100 µM (inactive) each time. Moreover, the GI50 is > 100 µM (inactive) in [7]; > 100 µM (inactive) in experiment [8]; 78.5 µM (inactive) in [9]; > 100 µM (inactive) in experiment [10]; > 100 µM (inactive) in experiment [11]; > 100 µM (inactive) in [12]. Further, the GI50 in [13], in experiment [14], in [15], in experiment [16], in [17] and in experiment [18] was > 100 µM (inactive) in each case. Further, the GI50 in [19] and in experiment [20] was > 100 µM (inactive) each time.

For the origin of these results see ChEMBL document CHEMBL1201862, “PubChem BioAssay data set” (2004).
